Data as given in patent US11382949B2, “Anthelmintic depsipeptide compounds” (BOEHRINGER INGELHEIM ANIMAL HEALTH USA INC., priority 2016, dated 2022).

Tested on: Microfilaria of Dirofilaria immitis
Assay: Method A: screening of compounds against microfilaria of Dirofilaria immitis (microtitre plate, survival at 72 hours)
Format: cell-based
Settings: read-out: mean EC50 values

C[C@H]1OC(=O)[C@H](CC(C)(C)C)N(C)C(=O)[C@@H](Cc2ccc(SC(F)(F)F)cc2)OC(=O)[C@H](CC(C)(C)F)N(C)C(=O)[C@@H](C)OC(=O)[C@H](CC(C)(C)C)N(C)C(=O)[C@@H](Cc2ccc(SC(F)(F)F)cc2)OC(=O)[C@H](CC(C)(C)F)N(C)C1=O [44-46/1-4, (3S,6R,9S,12R,15S,18R,21S,24R)-3,15-bis(2-fluoro-2-methylpropyl)-4,6,10,16,18,22-hexamethyl-9,21-dineopentyl-12,24-bis(4-(trifluoromethylthio)benzyl)-1,7,13,19-tetraoxa-4,10,16,22-tetraazacyclotetracosan-2,5,8,11,14,17,20,23-octaone]
EC50: < 1 µM
